# What was measured:
# Format in all cases: in vivo, human
# [1] = system: sweat apparatus (glands or ducts) of patients with idiopathic hypohidrosis; test: Injection of Carbachol to locate the pathology in idiopathic hypohidrosis (induction of sweating)
# [2] = system: patients with idiopathic hypohidrosis; test: Treatment of fourteen patients with idiopathic hypohidrosis with oral retinoids (exercise, starch-iodine sweat test, HD-OCT); settings: for patients who responded and were successfully treated: generalised hypohidrosis, three with acitretin (one did not respond)
# Protocol: Fourteen patients presenting with idiopathic hypohidrosis underwent monitored exercising on a stationary bicycle for 20 minutes. Their temperature and heart rate were repeatedly measured during the exercise. Subsequently, using a spray gun, starch-iodine powder was sprayed onto the whole body of the patient and the powder coats onto the skin (FIG. 1). The coat of powder on body areas with sweating turned purple, while the powder in areas without sweat remained brown (FIG. 2). This allows the body surface area of anhidrosis to be assessed. Thereafter, the patient rinsed off the powder, which washed off easily with water.
# The patients' skin was subsequently imaged using high-definition optical coherence tomography (HD-OCT) non-invasive skin imaging (Skintell, Agfa, Belgium). HD-OCT uses an infrared (1000-1700 nm), interferometric and time-domain imaging technique. Instead of a single pin diode light detector, it uses a two-dimensional imaging array to allow for simultaneous cross-sectional and en face images acquisition. A high lateral resolution of 3 μm is ensured using a technique called continuous focus tracking. The capture of a 3D image (containing 57 million voxels) takes 2-3 seconds and the information acquired can subsequently be digitally analysed.
# The fourteen patients suffering from idiopathic hypohidrosis were offered treatment according to the invention.
# All of the treated patients were started on an oral dose of isotretinoin or acitretin of between 5 and 20 mg once daily for at least six weeks. If necessary, this dose was adjusted, whether increased because the initial dose was ineffective, or decreased to reduce the expected side effects associated with oral retinoids. All patients responded to a dose of between 10 and 30 mg once daily. This dose was further adjusted as required until symptoms of idiopathic hypohidrosis had resolved. Administration of retinoids was continued to prevent reoccurrence of symptoms.
# [3] = system: patients with idiopathic hypohidrosis; test: Long term retrospective assessment of 28 patients with idiopathic hypohidrosis, 20 treated with retinoids
# Protocol: A retrospective analysis on patients with isolated hypohidrosis who attended a neuro-dermatology clinic over a 5.75-year period was conducted. All patients routinely underwent standardized exercising and whole-body starch-iodine test, followed by non-invasive HD-OCT skin imaging, and their treatment history was analysed.
# 28 patients with idiopathic hypohidrosis were included in the study, 14 of whom were affected in a generalised manner (with 70% and more of body surface affected) and 14 in a partial manner. 14 of the 28 patients were those which were the subject of Example 1, and 14 patients were new.
# [4] = five treated with isotretinoin, oral once daily
# [5] = one patient successfully treated with isotretinoin
Structure (SMILES),induction of sweating ([1]; injection at regions where patients could sweat),induction of sweating ([1]; injection in areas where patients cannot sweat),"patients who responded and were successfully treated [2, 4]","patients recovered ([3]; of three patients treated, one did not respond) [patients]","HD-OCT imaging of lesions after treatment [2, 5]","sweat test after treatment [2, 5]","patients who responded to treatment and were successfully treated ([2]; partial hypohidrosis, five treated with isotretinoin, oral once daily)","patients recovered well enough to return to their pre-morbid sporting activities ([3]; seventeen patients (7 generalised and 10 partial), oral) [%]"
C[N+](C)(C)CCOC(N)=O [Carbachol],induced sweating,could not do so,–,–,–,–,–,–
COc1cc(C)c(/C=C/C(C)=C/C=C/C(C)=C/C(=O)O)c(C)c1C [acitretin],–,–,Two of the three,2,–,–,–,–
"CC1=C(/C=C/C(C)=C/C=C/C(C)=C\C(=O)O)C(C)(C)CCC1 [isotretinoin, 13-cis-retinoic acid]",–,–,All five,–,no longer visible,normalised extent of sweating,All five,100

# Source: patent US12514840B2, “Treatment of idiopathic hypohidrosis” (NATIONAL SKIN CENTRE (SINGAPORE) PTE LTD, priority 2019, dated 2026)
